Measured values reported in patent US11034700B2, “Substituted pyrrolidine compound and use thereof” (Takeda Pharmaceutical Company Limited, priority 2017, dated 2021).

Target: T1, human OX2 receptor (Homo sapiens, UniProt O43614)
T1 construct: expressed in transfected cells
T1 sequence (O43614 1-444): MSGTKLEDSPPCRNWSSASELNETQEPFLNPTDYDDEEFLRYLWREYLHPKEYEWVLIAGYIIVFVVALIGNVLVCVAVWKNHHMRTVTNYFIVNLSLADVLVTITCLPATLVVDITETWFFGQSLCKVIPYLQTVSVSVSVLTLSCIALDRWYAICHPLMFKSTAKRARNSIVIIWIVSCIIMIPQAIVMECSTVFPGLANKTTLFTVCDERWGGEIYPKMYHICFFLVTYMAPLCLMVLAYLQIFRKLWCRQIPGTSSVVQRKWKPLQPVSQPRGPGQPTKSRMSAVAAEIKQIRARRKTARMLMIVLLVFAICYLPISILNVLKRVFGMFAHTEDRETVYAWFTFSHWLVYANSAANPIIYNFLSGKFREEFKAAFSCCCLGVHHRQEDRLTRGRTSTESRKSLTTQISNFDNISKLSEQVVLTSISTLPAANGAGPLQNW
Experiment: Measurement of orexin type 2 receptor agonist activity (Fluo-4 calcium fluorescence, FDSS)
Type: cell-based
Conditions: compound at 3 μM; CHO cells forcibly expressing human OX2 receptor; DMSO = 0%, orexin A (human) 10 nM = 100%
Text: Experimental Example 1: Obtainment of Cell Stably Expressing Human Orexin Type 2 Receptor (hOX2R)
To obtain a cell clone stably expressing human orexin type 2 receptor, human orexin type 2 receptor cDNA was inserted into pcDNA3.1(+) plasmid vector (Invitrogen), and a plasmid DNA for expression of human orexin type 2 receptor (pcDNA3.1(+)/hOX2R) was cloned. The plasmid DNA was introduced into CHO-dhfr cell by an electroporation method, and human orexin type 2 receptor expressing clone cells were obtained by limiting dilution method by using G418 drug resistance as a selection marker.
Experimental Example 2: Measurement of Orexin Type 2 Receptor Agonist Activity
CHO cells forcibly expressing human OX2 receptor were seeded in each well of 384 well black transparent bottom plate (BD Falcon) at 7,500 cells/well, and cultured for one day in a 5% CO2 incubator at 37° C. After removal of the medium in the cell plate, assay buffer A containing a calcium indicator (HESS (Life Technologies), 20 mM HEPES (Life Technologies), 0.1% BSA (Wako Pure Chemical Industries, Ltd.), 2.5 μg/mL Fluo-4 AM (DOJINDO Chemical), 0.08% Pluronic F127 (DOJINDO Chemical), 1.25 mM probenecid (DOJINDO Chemical)) was added at 30 μL/well. The plate was stood for 30 min in a 5% CO2 incubator at 37° C., and further stood at room temperature for 30 min. A test compound prepared by diluting with assay buffer B (HESS, 20 mM HEPES, 0.1% BSA) was added at 10 μL/well, and the fluorescence value was measured by FDSSμCELL (Hamamatsu Photonics K.K.) every one sec for 1 min, and thereafter every two sec for 1 min 40 sec. The activity (%) of the test compound was calculated assuming that variation in the fluorescence value when DMSO was added instead of the test compound was 0% […], and variation in the fluorescence value when orexin A (human) (PEPTIDE INSTITUTE, INC.) was added at the final concentration of 10 nM was 100% […]. The activity of each compound at the concentration of 3 μM was shown below.

Structure (SMILES): COc1ccc(-c2cccc(C(=O)N(C)C)c2)cc1S(=O)(=O)Nc1cccc(O[C@H]2CCN(C(=O)c3cccc(C)c3)C2)c1 [Example 6, 4′-methoxy-N,N-dimethyl-3′-((3-(((3S)-1-(3-methylbenzoyl)pyrrolidin-3-yl)oxy)phenyl)sulfamoyl)biphenyl-3-carboxamide]
- OX2R agonist activity (3 μM, %): 101%

Structure (SMILES): COc1ccc(C2CCCCN2C(C)=O)cc1S(=O)(=O)Nc1cccc(O[C@H]2CCN(C(=O)c3c(C)cccc3C)C2)c1 (stereo partly drawn) [Example 33, 5-(1-acetylpiperidin-2-yl)-N-(3-(((3S)-1-(2,6-dimethylbenzoyl)pyrrolidin-3-yl)oxy)phenyl)-2-methoxybenzenesulfonamide]
- OX2R agonist activity (3 μM, %): 89%

Structure (SMILES): COc1ccccc1S(=O)(=O)Nc1cccc(O[C@@H]2CN(C(=O)c3cc(C)ccc3C)C[C@H]2O)c1 (relative stereo) [Example 114, trans-N-(3-((1-(2,5-dimethylbenzoyl)-4-hydroxypyrrolidin-3-yl)oxy)phenyl)-2-methoxybenzenesulfonamide]
- OX2R agonist activity (3 μM, %): 60%

Structure (SMILES): CO[C@@H]1CN(C(=O)c2cc(C)ccc2C)C[C@H]1Oc1cccc(NS(=O)(=O)c2ccccc2)c1 (relative stereo) [Example 65, trans-N-(3-((1-(2,5-dimethylbenzoyl)-4-methoxypyrrolidin-3-yl)oxy)phenyl)benzenesulfonamide]
- OX2R agonist activity (3 μM, %): 78%

Structure (SMILES): CO[C@@H]1CN(C(=O)c2cc(C)ccc2C)C[C@H]1Oc1cccc(NS(=O)(=O)c2sccc2Cl)c1 [Example 84, 3-chloro-N-(3-(((3R,4R)-1-(2,5-dimethylbenzoyl)-4-methoxypyrrolidin-3-yl)oxy)phenyl)thiophene-2-sulfonamide]
- OX2R agonist activity (3 μM, %): 96%

Structure (SMILES): COc1ccccc1S(=O)(=O)Nc1cccc(O[C@@H]2CN(C(=O)c3cc(C)ccc3C)C[C@H]2OC)c1C (relative stereo) [Example 103, trans-N-(3-((1-(2,5-dimethylbenzoyl)-4-methoxypyrrolidin-3-yl)oxy)-2-methylphenyl)-2-methoxybenzenesulfonamide]
- OX2R agonist activity (3 μM, %): 80%

Structure (SMILES): CCCS(=O)(=O)Nc1cccc(O[C@@H]2CN(C(=O)c3cc(C)ccc3C)C[C@H]2OC)c1 [Example 79, N-(3-(((3R,4R)-1-(2,5-dimethylbenzoyl)-4-methoxypyrrolidin-3-yl)oxy)phenyl)propane-1-sulfonamide]
- OX2R agonist activity (3 μM, %): 76%

Structure (SMILES): COc1ccccc1S(=O)(=O)Nc1cccc(O[C@@H]2CN(C(=O)c3cc(C)ccc3C)C[C@H]2OC)c1 (relative stereo) [Example 56, trans-N-(3-((1-(2,5-dimethylbenzoyl)-4-methoxypyrrolidin-3-yl)oxy)phenyl)-2-methoxybenzenesulfonamide]
- OX2R agonist activity (3 μM, %): 101%

Structure (SMILES): COc1ccccc1S(=O)(=O)Nc1cccc(O[C@@H]2CN(C(=O)c3cc(C)ccc3C)C[C@H]2C)c1 (relative stereo) [Example 92, trans-N-(3-((1-(2,5-dimethylbenzoyl)-4-methylpyrrolidin-3-yl)oxy)phenyl)-2-methoxybenzenesulfonamide]
- OX2R agonist activity (3 μM, %): 102%

Structure (SMILES): Cc1cccc(C)c1C(=O)N1CC[C@H](Oc2cccc(NS(=O)(=O)c3ccccc3Cl)c2)C1 [Example 37, 2-chloro-N-(3-(((3S)-1-(2,6-dimethylbenzoyl)pyrrolidin-3-yl)oxy)phenyl)benzenesulfonamide]
- OX2R agonist activity (3 μM, %): 35%

Structure (SMILES): COc1ccc(N2CCOCC2)cc1S(=O)(=O)Nc1cccc(O[C@H]2CCN(C(=O)c3c(C)cccc3C)C2)c1 [Example 31, N-(3-(((3S)-1-(2,6-dimethylbenzoyl)pyrrolidin-3-yl)oxy)phenyl)-2-methoxy-5-(morpholin-4-yl)benzenesulfonamide]
- OX2R agonist activity (3 μM, %): 75%

Structure (SMILES): CCCS(=O)(=O)Nc1cccc(O[C@@H]2CN(C(=O)c3cc(C)ccc3C)C[C@H]2OC)c1 (relative stereo) [Example 66, trans-N-(3-((1-(2,5-dimethylbenzoyl)-4-methoxypyrrolidin-3-yl)oxy)phenyl)propane-1-sulfonamide]
- OX2R agonist activity (3 μM, %): 76%

Structure (SMILES): COc1ccc(-c2cccc(C(=O)N(C)C)c2)cc1S(=O)(=O)Nc1cccc(O[C@H]2CCN(C(=O)C3CCCCO3)C2)c1 (stereo partly drawn) [Example 14, 4′-methoxy-N,N-dimethyl-3′-((3-(((3S)-1-(tetrahydro-2H-pyran-2-ylcarbonyl)pyrrolidin-3-yl)oxy)phenyl)sulfamoyl)biphenyl-3-carboxamide]
- OX2R agonist activity (3 μM, %): 95%

Structure (SMILES): COc1ccc(-c2cccc(C(=O)N(C)C)c2)cc1S(=O)(=O)Nc1cc(OC2CCN(C(=O)c3cccc(C)c3)C2)ccn1 (centres unmarked) [Example 49, 4′-methoxy-N,N-dimethyl-3′-((4-((1-(3-methylbenzoyl)pyrrolidin-3-yl)oxy)pyridin-2-yl)sulfamoyl)biphenyl-3-carboxamide]
- OX2R agonist activity (3 μM, %): 64%

Structure (SMILES): COc1ccccc1S(=O)(=O)Nc1cccc(O[C@H]2CCN(C(=O)c3cc(C)ccc3C)C2)c1 [Example 62, N-(3-(((3S)-1-(2,5-dimethylbenzoyl)pyrrolidin-3-yl)oxy)phenyl)-2-methoxybenzenesulfonamide]
- OX2R agonist activity (3 μM, %): 69%

Structure (SMILES): COc1ccc(N2CCCCC2=O)cc1S(=O)(=O)Nc1cccc(O[C@H]2CCN(C(=O)c3c(C)cccc3C)C2)c1 [Example 30, N-(3-(((3S)-1-(2,6-dimethylbenzoyl)pyrrolidin-3-yl)oxy)phenyl)-2-methoxy-5-(2-oxopiperidin-1-yl)benzenesulfonamide]
- OX2R agonist activity (3 μM, %): 89%

Structure (SMILES): COc1ccc(-c2cccc(C(=O)N(C)C)c2)cc1S(=O)(=O)Nc1cccc(O[C@H]2CCN(C(=O)c3c(C)cccc3C)C2)c1 [Example 10, 3′-((3-(((3S)-1-(2,6-dimethylbenzoyl)pyrrolidin-3-yl)oxy)phenyl)sulfamoyl)-4′-methoxy-N,N-dimethylbiphenyl-3-carboxamide]
- OX2R agonist activity (3 μM, %): 106%

Structure (SMILES): COc1ccc(-c2cccc(C(=O)N(C)C)c2)cc1S(=O)(=O)Nc1cccc(O[C@H]2CCN(C(=O)c3cc(C)ccc3C)C2)c1 [Example 32, 3′-((3-(((3S)-1-(2,5-dimethylbenzoyl)pyrrolidin-3-yl)oxy)phenyl)sulfamoyl)-4′-methoxy-N,N-dimethylbiphenyl-3-carboxamide]
- OX2R agonist activity (3 μM, %): 92%

Structure (SMILES): Cc1cccc(C)c1C(=O)N1CC[C@H](Oc2cccc(NS(=O)(=O)c3cccc(-c4cccc(C(=O)N(C)C)c4)c3)c2)C1 [Example 34, 3′-((3-(((3S)-1-(2,6-dimethylbenzoyl)pyrrolidin-3-yl)oxy)phenyl)sulfamoyl)-N,N-dimethylbiphenyl-3-carboxamide]
- OX2R agonist activity (3 μM, %): 94%

Structure (SMILES): CC[C@@H]1CN(C(=O)c2cc(C)ccc2C)C[C@H]1Oc1cccc(NS(=O)(=O)c2ccccc2OC)c1 (relative stereo) [Example 93, trans-N-(3-((1-(2,5-dimethylbenzoyl)-4-ethylpyrrolidin-3-yl)oxy)phenyl)-2-methoxybenzenesulfonamide]
- OX2R agonist activity (3 μM, %): 80%

Structure (SMILES): COc1ccc(-c2cccc(C(=O)N(C)C)c2)cc1S(=O)(=O)Nc1cccc(N(C)C2CCN(C(=O)c3cc(C)ccc3C)C2)c1 (centres unmarked) [Example 58, 3′-((3-((1-(2,5-dimethylbenzoyl)pyrrolidin-3-yl)(methyl)amino)phenyl)sulfamoyl)-4′-methoxy-N,N-dimethylbiphenyl-3-carboxamide]
- OX2R agonist activity (3 μM, %): 104%

Structure (SMILES): COc1ccccc1S(=O)(=O)Nc1cccc(O[C@@H]2CN(C(=O)c3c(C)cccc3F)C[C@H]2OC)c1 [Example 96, N-(3-(((3R,4R)-1-(2-fluoro-6-methylbenzoyl)-4-methoxypyrrolidin-3-yl)oxy)phenyl)-2-methoxybenzenesulfonamide]
- OX2R agonist activity (3 μM, %): 80%

Structure (SMILES): COc1ccccc1S(=O)(=O)Nc1cccc(O[C@@H]2CN(C(=O)c3c(C)cccc3C)C[C@H]2OC)c1 [Example 74, N-(3-(((3R,4R)-1-(2,6-dimethylbenzoyl)-4-methoxypyrrolidin-3-yl)oxy)phenyl)-2-methoxybenzenesulfonamide]
- OX2R agonist activity (3 μM, %): 104%
